# Data as given in patent EP1067939B1, “USE OF STEROIDAL ALKALOID DERIVATIVES AS INHIBITORS OF HEDGEHOG PROTEIN SIGNALING PATHWAYS” (The Johns Hopkins University, priority 1998, dated 1999).
# Several values for one entry are separate records, joined by “and”; a condition that tells them apart may be missing. Identical values can stand only once. Like-named read-outs stand apart in the source and are kept apart here.
# How the values were obtained:
# [1] = system: chick embryos
# Text: • 1. M. Hammerschmidt, A. Brook, A. P. McMahon, Trends Genet, 13, 14-21 (1997). • 2. C. Chiang, et al., Nature, 383,407-413 (1996). • 3. Y. Tanabe, T. M. Jessell, Science 274, 1115-1123 (1996). • 4. T. P. Yamaguchi, Curr. Opin. Genet. Dev. 7, 513-518 (1997). • 5. N. Shubin, C. Tabin, S. Carroll, Nature 388, 639-648 (1997). • 6. A. E. Oro, et al., Science 276, 817-821 (1997). • 7. M. M. Cohen, K. K. Sulik, J. Craniofac. Genet. Deve. Biol. 12, 196-244 (1992). • 8. E. Belloni, et al., Nature Genet. 14, 353-356 (1996). • 9. E. Roessler, et al., Nature Genet. 14, 357-360 (1996). • 10. J. A. Porter, et al., Nature 374, 363-366 (1995). • 11. J. A. Porter, K. E. Young, P. A. Beacy, Science 274, 255-259 (1996b). • 12. J. J. Lee, et al., Science 266, 1528-1537 (1994). • 13. J. A. Porter, et al., Cell 86, 21-34 (1996a). • 14. C. Roux, Arch. Franc. Pediatr. 21, 451-464 (1964). • 15. C. Roux, C. R. Soc. Biol. 160, 1353-1357 (1966). • 16. D. B. Dehart, L. Lanoue, G. S. Tinit, K. K. Sulik, Am J. Med. Genet. 68, 328-337 (1997). • 17. M. Kraml, J. F. Bagli, D. Dvornik, Biochem. and Biophysical Res. Com. 15, 455-457 (1964). • 18. J. Avigan, D. Steinberg, H. E. Vroman, M. J. Thompson, E. Mosettig, J. Biol. Chem 235, 3123-3126 (1960). • 19. R. B. Clayton, A. N. Nelson, I. D. Frantz Jr., J. Lipid Res. 4, 166-178 (1963). • 20. J. Aufenanger, J. Pill, K. Stegmeier, F. H. Schmidt, Horm. Metabol. Res. 17, 612-613 (1986). • 21. […] G. Popjak, A. Meenean, E. J. Parish, W. D. Nes, J. Biol. Chem 264,6230-6238 (1989). • 23. H. Yoshikawa, Brain Deve. 13, 115-120 (1991). • 24. R. I. Kelley, et al., Am. J. Of Med. Gen. 66, 478-484 (1996). • 25. G. S. Tint, et al., New England Journal of Medicine 330, 107-113 (1994). • 26. T.E. Willnow, et al., Proc. Natl. Acad. Sci USA 93, 8460-8464 (1996). • 27. S. Stefansson, D. A. Chappell, K. M. Argraves, D. K. Strickland, W. S. Argraves, J. Biol. Chem. 270, 19417-19421 (1995). • 28. W. Binns, L. F. James, J. L. Shupe, G. Everett, Am. J. Vet. Res. 24, 1164-1174 (1963). • 29. R. F. Keeler, W. Binns, Teratology 1, 5-10 (1968). • 30. P. A. Beachy, et al., CSH Symp. Quant. Biol. 62, in press (1997). • 31. […]
# [2] = target: T1, Shh (Mus musculus, UniProt Q62226); experiment: Shh autoprocessing in stably transfected HK293 cells (immunoblot); type: cell-based; conditions: added during the 24-hour induction period; doses up to 5-fold higher than those required to completely inhibit Shh signaling
# T1 construct: expressed in transfected cells; host or cells: HK293 cells, Ecdysone-Inducible Mammalian Expression System (Invitrogen)
# Text: To examine potential effects of these compounds on Shh processing we utilized HK293 cells cultured in lipid-depleted serum and carrying a stable integrated construct for expression of Shh under ecdysone-inducible control (47). Shh protein expression in these cells can be induced by addition of muristerone A, an ecdysone analog.
# • 1. M. Hammerschmidt, A. Brook, A. P. McMahon, Trends Genet, 13, 14-21 (1997). • 2. C. Chiang, et al., Nature, 383,407-413 (1996). • 3. Y. Tanabe, T. M. Jessell, Science 274, 1115-1123 (1996). • 4. T. P. Yamaguchi, Curr. Opin. Genet. Dev. 7, 513-518 (1997). • 5. N. Shubin, C. Tabin, S. Carroll, Nature 388, 639-648 (1997). • 6. A. E. Oro, et al., Science 276, 817-821 (1997). • 7. M. M. Cohen, K. K. Sulik, J. Craniofac. Genet. Deve. Biol. 12, 196-244 (1992). • 8. E. Belloni, et al., Nature Genet. 14, 353-356 (1996). • 9. E. Roessler, et al., Nature Genet. 14, 357-360 (1996). • 10. J. A. Porter, et al., Nature 374, 363-366 (1995). • 11. J. A. Porter, K. E. Young, P. A. Beacy, Science 274, 255-259 (1996b). • 12. J. J. Lee, et al., Science 266, 1528-1537 (1994). • 13. J. A. Porter, et al., Cell 86, 21-34 (1996a). • 14. C. Roux, Arch. Franc. Pediatr. 21, 451-464 (1964). • 15. C. Roux, C. R. Soc. Biol. 160, 1353-1357 (1966). • 16. D. B. Dehart, L. Lanoue, G. S. Tinit, K. K. Sulik, Am J. Med. Genet. 68, 328-337 (1997). • 17. M. Kraml, J. F. Bagli, D. Dvornik, Biochem. and Biophysical Res. Com. 15, 455-457 (1964). • 18. J. Avigan, D. Steinberg, H. E. Vroman, M. J. Thompson, E. Mosettig, J. Biol. Chem 235, 3123-3126 (1960). • 19. R. B. Clayton, A. N. Nelson, I. D. Frantz Jr., J. Lipid Res. 4, 166-178 (1963). • 20. J. Aufenanger, J. Pill, K. Stegmeier, F. H. Schmidt, Horm. Metabol. Res. 17, 612-613 (1986). • 21. […] G. Popjak, A. Meenean, E. J. Parish, W. D. Nes, J. Biol. Chem 264,6230-6238 (1989). • 23. H. Yoshikawa, Brain Deve. 13, 115-120 (1991). • 24. R. I. Kelley, et al., Am. J. Of Med. Gen. 66, 478-484 (1996). • 25. G. S. Tint, et al., New England Journal of Medicine 330, 107-113 (1994). • 26. T.E. Willnow, et al., Proc. Natl. Acad. Sci USA 93, 8460-8464 (1996). • 27. S. Stefansson, D. A. Chappell, K. M. Argraves, D. K. Strickland, W. S. Argraves, J. Biol. Chem. 270, 19417-19421 (1995). • 28. W. Binns, L. F. James, J. L. Shupe, G. Everett, Am. J. Vet. Res. 24, 1164-1174 (1963). • 29. R. F. Keeler, W. Binns, Teratology 1, 5-10 (1968). • 30. P. A. Beachy, et al., CSH Symp. Quant. Biol. 62, in press (1997). • 31. E. D. Carstea, et al., Science 277, 228-231 (1997). • 32. S. K. Loftus, et al., Science 277, 232-235 […]. • 33. L. V. Goodrich, L. Milenkovic, K. M. Higgins, M. P. Scott, Science 277, 1109-1113 (1997). • 34. H. Kumagai, K. T. Chun, R. D. Simoni, J. Biol. Chem. 270, 19107-19113 (1995). • 35. G. Gil, J. R. Faust, D. J. Chin, J. L. Goldstien, M. S. Brown, Cell 41, 249-258 (1985). • 36. X. Hua, A. Nohturfft, J. L. Goldstein, M. S. Brown, Cell 87, 415-426 (1996). • 37. M. S. Brown, J. L. Goldstein, Cell 89, 331-340 (1997). • 38. M. M. Bryden, C. Perry, R. F. Keeler, Teratology 8, 18-28 (1973). • 39. M. L. Omnell, F. R. P. Sim, R. F. Keeler, L. C. Harne, K. W. Brown, Teratology 42, 105-119 (1990). • 40. Fertile chick eggs (white leghorn) were placed in a humidified incubator at 37.5° C in a rotating tray for 14 hours. […] The window was taped and the eggs incubated for an additional 4 days. The embryos were dissected in phosphate buffered saline (PBS, pH 7.2).
# [3] = system: BMP7; experiment: Neural plate explant response to BMP7 (migratory HNK-1 positive cells); type: cell-based, chick; conditions: 10 µM, 100 ng/ml BMP7, ventral neural plate explants
# [4] = system: Shh protein; experiment: Shh protein localization in floor plate cells of treated chick embryos; type: in vivo; conditions: embryos treated after floor plate induction
# [5] = target: T2, His6Hh-C (Drosophila melanogaster, UniProt Q02936); experiment: In vitro Hh autoprocessing reaction with purified components; type: biochemical
# T2 construct: made in house
# [6] = system: rat hepatoma cells; experiment: Cholesterol Esterification Assay (esterification of plasma membrane cholesterol); type: cell-based
# Text: Table 1. […] Table 1. Effects of synthetic and plant-derived compounds on cholesterol homeostasis. […]
# [7] = system: endogenous Shh signaling; experiment: Midline neural plate/notochord explant assay of endogenous Shh signaling; type: cell-based, chick
# [8] = system: primary human lymphoblasts; experiment: Cholesterol Biosynthesis Assay (sterol profiles of cultured cells); type: cell-based; conditions: for Percent Sterols: 2. C28 Sterols / Percent Sterols: 3. C29 Sterols / Percent Sterols: Cholesterol / Percent Sterols: d. Zymosterol / Percent Sterols: e. Cholesta-8(14)-en-3ß-ol / Percent Sterols: f. 7 Dehydrocholesterol / Total Sterols (µg/mg protein) / Percent Sterols: c. Cholesta-7,24-dien-3ß-ol: five days
# [9] = system: Shh-N; experiment: Intermediate neural plate explant response to exogenous Shh-N protein; type: cell-based, chick
# [10] = read-out: Percent Inhibition (incorporation of label into cholesteryl ester*) ^3H-Cholesterol
# [11] = read-out: Percent Inhibition (incorporation of label into cholesteryl ester*) ^14C-Oleic Acid
# T2 sequence (Q02936 252-471): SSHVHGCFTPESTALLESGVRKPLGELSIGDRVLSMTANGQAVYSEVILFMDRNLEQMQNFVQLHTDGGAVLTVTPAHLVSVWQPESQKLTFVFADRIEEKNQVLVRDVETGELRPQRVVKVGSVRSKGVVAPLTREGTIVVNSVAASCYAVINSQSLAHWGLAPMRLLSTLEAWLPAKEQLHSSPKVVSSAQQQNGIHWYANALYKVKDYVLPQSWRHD
# T1 sequence (Q62226 25-437): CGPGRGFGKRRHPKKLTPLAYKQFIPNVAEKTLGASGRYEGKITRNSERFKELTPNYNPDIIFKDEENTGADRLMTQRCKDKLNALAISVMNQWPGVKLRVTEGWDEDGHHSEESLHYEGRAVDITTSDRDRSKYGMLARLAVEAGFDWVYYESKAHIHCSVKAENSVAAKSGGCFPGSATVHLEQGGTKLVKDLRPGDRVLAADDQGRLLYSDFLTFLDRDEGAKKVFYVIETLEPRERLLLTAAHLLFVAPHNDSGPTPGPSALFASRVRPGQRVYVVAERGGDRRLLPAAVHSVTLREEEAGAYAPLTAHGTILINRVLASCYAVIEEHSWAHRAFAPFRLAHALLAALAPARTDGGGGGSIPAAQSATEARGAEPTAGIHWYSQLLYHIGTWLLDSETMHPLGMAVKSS
smiles,measurement,setting,value
"CC1=C2C(=O)[C@H]3[C@@H](CC=C4C[C@@H](O)CC[C@@]43C)[C@@H]2CC[C@]12O[C@@H]1C[C@H](C)CN[C@H]1[C@H]2C [Jervine, jervine]",Holoprosencephaly induced in chick embryos,"[1]; in ovo exposure at the intermediate to definitive streak stage, Fig. 2: 10 µM jervine",induced external malformations characteristic of HPE
same,embryos displayed normal morphology,"[1]; in ovo, highest concentrations tested, 50µM",5/10
same,Shh-Np production and accumulation of unprocessed precursor,[2],did not diminish Shh-Np production nor induce accumulation of unprocessed precursor
same,Induction of migratory HNK-1 positive cells by BMP7,[3],not inhibited
same,localization of Shh protein within floor plate cells,[4],normal apical localization of Shh protein
same,His6Hh-C autocleavage reaction in the presence of compound without sterol,[5],does not proceed
same,interference with cholesterol-stimulated autoprocessing,[5],does not interfere with autoprocessing
same,inhibition at 2.5 µM,[6]; [10],24%
same,inhibition at 2.5 µM,[6]; [11],28%
same,inhibition at 5 µM,[6]; [10],44%
same,inhibition at 5 µM,[6]; [11],36%
same,inhibition at 10 µM,[6]; [10],50%
same,inhibition at 10 µM,[6]; [11],49%
same,Higher doses that fully inhibit HNF3β and Isl-1 induction,[7],4.0 µM
same,Intermediate doses that block induction of HNF3β while permitting induction of Isl-1,[7],0.5 µM
same,Percent Sterols: a. Desmosterol,[8],2.7% and 2.5% and 2.4%
same,Percent Sterols: 2. C28 Sterols,[8]; 1.25 µM,1.2%
same,Percent Sterols: 3. C29 Sterols,[8]; 1.25 µM,0.8%
same,Percent Sterols: Cholesterol,[8]; 1.25 µM,90%
same,Percent Sterols: d. Zymosterol,[8]; 1.25 µM,1.7%
same,Percent Sterols: e. Cholesta-8(14)-en-3ß-ol,[8]; 1.25 µM,1.0%
same,Percent Sterols: f. 7 Dehydrocholesterol,[8]; 1.25 µM,1.5%
same,Total Sterols (µg/mg protein),[8]; 1.25 µM,8.8 µg/mg protein
same,Percent Sterols: 2. C28 Sterols,[8]; 2.5 µM,0.7%
same,Percent Sterols: 3. C29 Sterols,[8]; 2.5 µM,0.8%
same,Percent Sterols: Cholesterol,[8]; 2.5 µM,90%
same,"Percent Sterols: c. Cholesta-7,24-dien-3ß-ol",[8]; 2.5 µM,0.5%
same,Percent Sterols: d. Zymosterol,[8]; 2.5 µM,2.0%
same,Percent Sterols: e. Cholesta-8(14)-en-3ß-ol,[8]; 2.5 µM,1.7%
same,Percent Sterols: f. 7 Dehydrocholesterol,[8]; 2.5 µM,1.4%
same,Total Sterols (µg/mg protein),[8]; 2.5 µM,8.4 µg/mg protein
same,Percent Sterols: 2. C28 Sterols,[8]; 5.0 µM,0.7%
same,Percent Sterols: 3. C29 Sterols,[8]; 5.0 µM,1.6%
same,Percent Sterols: Cholesterol,[8]; 5.0 µM,88%
same,"Percent Sterols: c. Cholesta-7,24-dien-3ß-ol",[8]; 5.0 µM,0.5%
same,Percent Sterols: d. Zymosterol,[8]; 5.0 µM,2.3%
same,Percent Sterols: e. Cholesta-8(14)-en-3ß-ol,[8]; 5.0 µM,2.3%
same,Percent Sterols: f. 7 Dehydrocholesterol,[8]; 5.0 µM,1.3%
same,Total Sterols (µg/mg protein),[8]; 5.0 µM,10 µg/mg protein
same,concentration that inhibits the repression of Pax7 expression by 2 nM Shh-N,[9],0.125 µM
same,doses at which HNF3β and Isl-1 induction are completely blocked,[9],0.5 µM
same,intermediate levels at which induction of HNF3β is blocked while induction of Isl-1 is maintained or expanded,[9],0.25 µM
